Data: patent US6585954B1, “Method for searching steroid sulfatase inhibitors” (Kyowa Hakko Kogyo Co., Ltd., priority 1998, dated 2003)

What was measured:
[1] = test system: tumor of transformed cell line carrying the introduced human steroid sulfatase gene (STS); assay: Effect of a steroid sulfatase inhibitor on estrone-3-sulfate-dependent tumor growth in nude mice (Example 5); type: in vivo, BALB/c-nu/nu mice; settings: 0.1 mg/kg estrone-3-sulfate alone, subcutaneously for 22 days; by the 38th day
Experimental: The volume of a tumor can be calculated from the shorter diameter and the longer diameter of the tumor measured with slide calipers according to the following approximation formula.
Tumor volume=(longer diameter)×(shorter diameter)^2÷2
Animals in which the tumor growth was confirmed after administration of estrone-3-sulfate are selected, and a test compound is administered thereto. Then, the tumor volume is measured to estimate the steroid sulfatase-inhibiting activity of the test compound. The test compound may be administered by any of intravenous, subcutaneous, intraperitoneal and oral routes. The steroid sulfatase-inhibiting activity of the compound can be estimated by measuring the tumor volume at intervals of 3-4 days after the administration, and then comparing the tumor growth between the group to which only estrone-3-sulfate was administered and the group to which estrone-3-sulfate and the test compound were administered.
(§1) The cells were suspended at a concentration of 2×10^8 cells/ml and the suspension was mixed with an equal volume of matrigel-basement membrane (Becton & Dickinson). The resulting mixture was subcutaneously transplanted into 7- to 8-weeks-old female BALB/c-nu/nu mice, (nude mice, each group consisting of 5 mice) in an amount of 0.1 ml (1×10^7 cells). […]

[2] = test system: transformed cell line carrying the introduced human steroid sulfatase gene (STS); assay: Tumor formation after transplantation of cells carrying an introduced steroid sulfatase gene (Example 4); type: in vivo, BALB/c-nu/nu mice; settings: 0.1 mg/kg estrone-3-sulfate subcutaneously every day, after tumor growth stopped following estrogen preparation
Description: First, cells carrying the introduced steroid sulfatase gene are transplanted into an animal such as a mouse for fixation to form a tumor. That is, tumor cells carrying the introduced steroid sulfatase gene are transplanted subcutaneously into an immunodeficient mouse, for example, a BALB/c-nu/nu (a nude mouse) or an SCID mouse in an amount of 1-5×10^6 cells to form a tumor. At the time of transplantation, a crude extract of basement membrane containing adhesion factor (e.g., matrigel-basement membrane, Becton & Dickinson) may be added in order to improve the fixation rate [Br. J. Cancer, 67, 953 (1993)]. In the case of estrogen-dependent breast cancer, the fixation rate is improved and the tumor growth after the fixation is promoted by administering an estrogen compound.
as §1, with “cells). On the day of transplantation and 2 weeks later, an estrogen preparation (EP depo, Teikoku Zoki) was intramuscularly administered.” for “cells).”

SMILES: C[C@]12CC[C@@H]3c4ccc(OS(=O)(=O)O)cc4CC[C@H]3[C@@H]1CCC2=O [estrone-3-sulfate]
- tumor volume relative to the initial volume [1]: 1.4 times the initial volume
- tumor growth after administration [2]: the tumor grew in all mice and there was no reduction of tumor
